We go through one compound from US20200206198A1, “CFTR CHANNEL ACTIVATOR FOR USE IN THE TREATMENT AND/OR PREVENTION OF GLUTEN SENSITIVITY CONDITIONS” (priority 2017, published 2020).

The subject of this experiment is gliadin-sensitive BALB/c mice. Put plainly: Gliadin-sensitive BALB/c mice, 4-week oral gliadin challenge. Type of experiment: in vivo, mouse. The procedure: In the first model, BALB/c mice are fed for at least three generations with a gluten-free diet, followed by a 4-week gliadin challenge, as described (Papista, C., et al. 2012). Ten week-old BALB/c mice were orally challenged for 4 weeks with gliadin or vehicle in the presence or absence of 2 mM VX-770 administered intraperitoneally 15 min prior to gliadin challenge (n=10 per treatment group). […] Moreover, VX-770 opposed the ability of gliadin to increase TG2 protein levels (FIG. 9c) and ERK 1/2 phosphorylation (FIG. 9d).
BALB/c mice (background BALB/cAnNCrl) were purchased from Charles River (Varese, Italy). Three generation gluten-free diet (Mucedola srl, Milan), male and female, were challenged with gliadin for 4 weeks. To assess the effects of VX-770 into a controlled environment, mice were challenged via gavage for 4 weeks with i) vehicle alone or ii) gliadin (SigmaAldich, G3375) (5 mg/daily for one week and then 5 mg/daily thrice a week for 3 weeks)(Moon, S. H., et al. 2016) in the presence or absence of intraperitoneal VX770 (0.075 mg/mice in 100 μl DMSO, 2 mM, SelleckchemS1144) or genistein (25 mg\kg in 100μ1 DMSO, SigmaAldrich), administered 15 minutes prior gliadin challenge (n=10 mice per group of treatment).
At the end of the last daily treatment, mice were anesthetized with Avertine (tribromoethanol, 250 mg/kg, Sigma Aldrich, T48402) and then killed; the intestines were collected for CFTR function analysis or stored for all described techniques.
Chambers for mounting either transwell cell cultures or mouse tissue biopsies were obtained from Physiologic Instruments (model P2300, San Diego, Calif., USA). Chamber solution was buffered by bubbling with identical Ringer solution on both sides and were maintained at 37° C., vigorously stirred, and gassed with 95% O2/[…]. Cells or tissues were short circuited using Ag/AgCl agar electrodes. A basolateral-to-apical chloride gradient was established by replacing NaCl with Na-gluconate in the apical (luminal) compartment to create a driving force for CFTR-dependent Cl secretion. To measure stimulated Isc, the changed sodium gluconate solution was supplied with 100 μM amiloride. Agonists (forskolin) were added to the bathing solutions as indicated (for a minimum 5 min of observation under each condition) to activate CFTR channels present at the apical surface of the epithelium (either cell surface or lumen side of the tissue) and CFTRInh-172 (10 μM) was added to the mucosal bathing solution to block CFTR-dependent Isc. Shortcircuit current (expressed as Isc (μA/cm2)) and resistance were acquired or calculated using the VCC600 transepithelial clamp from Physiologic Instruments and the Acquire & Analyze 2.3 software for data acquisition (Physiologic Instruments), as previously described Tosco A, et al. 2016; Romani, L. et al. 2017).
The whole lysate or membrane fraction proteins of cell lines and mice intestine homogenates were obtained from treated and untreated cells or mice as described. The equal amount of protein were resolved by SDS-PAGE gel and blotted with antibodies against: SQSTM1, (Sigma Aldrich, 108k4767) 1:1000, PPARγ (Santa Cruz Biotechnology, sc7273) 1:500, BECN1 (Abcam, ab58878) 1:1000, CFTR clone M3A7 (Abcam, ab4067) 1:500, phospho-ERK1/2 (php42/44, Cell Signaling Technology, #91101) 1:1000, UVRAG (Santa Cruz Biotechnology sc8215) 1:1000, NHERF-1 (BD, 611161) 1:1000, EZRIN (BD, 610603) 1:1000, hVps34 (SigmaV9764) 1:300, biotin (Abcam, ab1227) 1:2000, PKAr2a (BD, 610625) 1:500, Ubiquitin (Cell Signaling clone P4D1, #3936) 1:1000, CHIP (Calbiochem PC711) 1:500, Caspase-1 p10 (M-20) (Santa Cruz Biotechnology, sc-514) 1:200, NLRP3 (Abcam, ab4207), 1:500, IDO1 (monoclonal; cv152) 1:1000^[80], used as primary antibodies. Normalization was performed by probing the membrane with anti-β-actin (Cell Signaling, #4970) 1:1000, anti-Gapdh (Sigma-Aldrich, G8795) 1:1000 and anti-flottilin (Abcam ab15148) 1:1000 antibodies. […]

Setting [1] is: BALB/c mice small intestine homogenates.

SMILES strings stand for the structures.

With `CC(C)(C)c1cc(C(C)(C)C)c(NC(=O)c2c[nH]c3ccccc3c2=O)cc1O` [VX-770, N-(2,4-di-tert-butyl-5-hydroxyphenyl)-4-oxo-1,4-dihydroquinoline-3-carboxamide], for the setting “BALB/c mice”, the “effect on gliadin induced expression of IL-21” value was “inhibited”. Besides, under “BALB/c mice small intestine”, the “effect on gliadin-induced NLRP3 expression” value is on record as “counteracted”, the “effect on gliadin-induced caspase 1 cleavage” value is reported as “counteracted” and the “effect on increased NKG2D expression by intraepithelial lymphocytes” value was “counteracted”. In addition, under setting [1], the “Th1 transcription factor Tbet transcript” value is on record as “downregulated” and the “Th17 transcription factor Rorc transcript” value is listed as “downregulated”. For the same compound, the “effect on gliadin-induced decrease of CFTR function in small intestines” value (BALB/c mice, 2 mM VX-770 i.p. 15 min prior to gliadin) is “inhibitable”. Also, where the note is “BALB/c mice, VX-770 i.p.”, the “effect on gliadin-induced ERK 1/2 phosphorylation” value was “opposed” and the “effect on gliadin-induced increase of TG2 protein levels” value was “opposed”. In addition, for the setting “BALB/c mice, p<0.001”, the “effect on gliadin-induced increase of IFN-γ mRNA and protein” value is listed as “prevented”; the “effect on gliadin-induced increase of IL-15 mRNA and protein” value is “prevented”; the “effect on gliadin-induced increase of IL-17A mRNA and protein” value is “prevented”. Moreover, under “gliadin-sensitive mice, ELISA”, the IL-10 production result is recorded as “restored” and the TGF-β production result was “restored”.
